Laboratory results taken from PubChem BioAssay (NCI).
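Compound exposure: 48 hours, 5 concentrations, 96-well plates. TGI is the concentration that stops growth completely.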

Columns and labels:
Test in all cases: NCI tumour cell line growth inhibition, 48 h
A549 NSCLC = tested on: A549 NSCLC
NCI-H226 lung = tested on: NCI-H226 lung
SNB-19 CNS = tested on: SNB-19 CNS
OVCAR-4 ovarian = tested on: OVCAR-4 ovarian
CAKI-1 renal = tested on: CAKI-1 renal
SF-539 CNS = tested on: SF-539 CNS
T-47D breast = tested on: T-47D breast
SK-MEL-28 melanoma = tested on: SK-MEL-28 melanoma
UACC-257 melanoma = tested on: UACC-257 melanoma
NCI-H23 lung = tested on: NCI-H23 lung
MOLT-4 leukemia = tested on: MOLT-4 leukemia
HS 578T breast = tested on: HS 578T breast
SK-MEL-5 melanoma = tested on: SK-MEL-5 melanoma
EKVX NSCLC = tested on: EKVX NSCLC
786-0 renal = tested on: 786-0 renal
UACC-62 melanoma = tested on: UACC-62 melanoma
SW-620 colon = tested on: SW-620 colon
HCT-15 colon = tested on: HCT-15 colon
MALME-3M melanoma = tested on: MALME-3M melanoma
UO-31 renal = tested on: UO-31 renal
RPMI-8226 leukemia = tested on: RPMI-8226 leukemia
SK-OV-3 ovarian = tested on: SK-OV-3 ovarian
U251 CNS = tested on: U251 CNS
TK-10 renal = tested on: TK-10 renal
COLO 205 colon = tested on: COLO 205 colon
SN12C renal = tested on: SN12C renal
HCT-116 colon = tested on: HCT-116 colon
OVCAR-5 ovarian = tested on: OVCAR-5 ovarian
MDA-MB-231 breast = tested on: MDA-MB-231 breast
NCI/ADR-RES ovarian = tested on: NCI/ADR-RES ovarian
LOX IMVI melanoma = tested on: LOX IMVI melanoma
M14 melanoma = tested on: M14 melanoma
KM12 colon = tested on: KM12 colon
K-562 leukemia = tested on: K-562 leukemia
SF-295 CNS = tested on: SF-295 CNS
CCRF-CEM leukemia = tested on: CCRF-CEM leukemia
DU-145 prostate = tested on: DU-145 prostate
ACHN renal = tested on: ACHN renal
NCI-H460 lung = tested on: NCI-H460 lung
SR leukemia = tested on: SR leukemia
HCC-2998 colon = tested on: HCC-2998 colon
MDA-MB-435 = tested on: MDA-MB-435
SNB-75 CNS = tested on: SNB-75 CNS
HOP-92 NSCLC = tested on: HOP-92 NSCLC
SK-MEL-2 melanoma = tested on: SK-MEL-2 melanoma
MDA-N = tested on: MDA-N
IGROV1 ovarian = tested on: IGROV1 ovarian
HOP-62 NSCLC = tested on: HOP-62 NSCLC
SF-268 CNS = tested on: SF-268 CNS
RXF 393 renal = tested on: RXF 393 renal
BT-549 breast = tested on: BT-549 breast
PC-3 prostate = tested on: PC-3 prostate
MCF7 breast = tested on: MCF7 breast
NCI-H522 lung = tested on: NCI-H522 lung
OVCAR-3 ovarian = tested on: OVCAR-3 ovarian
HT29 colon = tested on: HT29 colon
A498 renal = tested on: A498 renal
OVCAR-8 ovarian = tested on: OVCAR-8 ovarian
HL-60(TB) leukemia = tested on: HL-60(TB) leukemia

`N#Cc1c(-c2ccccc2)cc(Nc2ccc(Cl)cc2)n2c1nc1ccccc12` gave a TGI (A549 NSCLC) greater than 40.1 µM, a TGI (NCI-H226 lung) greater than 100 µM and a TGI (SNB-19 CNS) greater than 100 µM. The TGI (OVCAR-4 ovarian) was greater than 100 µM, the TGI (CAKI-1 renal) was greater than 30.7 µM and the TGI (SF-539 CNS) was greater than 49.5 µM. It also gave a TGI (T-47D breast) greater than 43 µM, a TGI (SK-MEL-28 melanoma) greater than 100 µM and a TGI (UACC-257 melanoma) greater than 28.8 µM. For the same compound, the TGI (NCI-H23 lung) was greater than 100 µM, the TGI (MOLT-4 leukemia) was 9.5 µM and the TGI (HS 578T breast) was 20.2 µM. For the same compound, the TGI (SK-MEL-5 melanoma) was 4.98 µM, the TGI (EKVX NSCLC) was greater than 46.7 µM and the TGI (786-0 renal) was greater than 39.7 µM. For the same compound, the TGI (UACC-62 melanoma) was greater than 100 µM, the TGI (SW-620 colon) was greater than 100 µM and the TGI (HCT-15 colon) was greater than 88 µM. It also gave a TGI (MALME-3M melanoma) greater than 100 µM, a TGI (UO-31 renal) greater than 100 µM and a TGI (RPMI-8226 leukemia) greater than 63.3 µM. The TGI (SK-OV-3 ovarian) was greater than 30.4 µM, the TGI (U251 CNS) was 97.5 µM and the TGI (TK-10 renal) was greater than 100 µM. It also gave a TGI (COLO 205 colon) of 2.8 µM, a TGI (SN12C renal) greater than 32.2 µM and a TGI (HCT-116 colon) greater than 31.7 µM. It also gave a TGI (OVCAR-5 ovarian) greater than 50.9 µM, a TGI (MDA-MB-231 breast) greater than 47.4 µM and a TGI (NCI/ADR-RES ovarian) of 15.7 µM. For the same compound, the TGI (LOX IMVI melanoma) was greater than 100 µM, the TGI (M14 melanoma) was greater than 100 µM and the TGI (KM12 colon) was greater than 65.5 µM. The TGI (K-562 leukemia) was 8.21 µM, the TGI (SF-295 CNS) was greater than 33.3 µM and the TGI (CCRF-CEM leukemia) was greater than 94.7 µM. The TGI (DU-145 prostate) was greater than 100 µM, the TGI (ACHN renal) was greater than 100 µM and the TGI (NCI-H460 lung) was greater than 37.6 µM. For the same compound, the TGI (SR leukemia) was 20.3 µM, the TGI (HCC-2998 colon) was greater than 100 µM and the TGI (MDA-MB-435) was greater than 100 µM. The TGI (SNB-75 CNS) was greater than 31.1 µM, the TGI (HOP-92 NSCLC) was 4.63 µM and the TGI (SK-MEL-2 melanoma) was greater than 83.6 µM. For the same compound, the TGI (MDA-N) was greater than 41.6 µM, the TGI (IGROV1 ovarian) was greater than 100 µM and the TGI (HOP-62 NSCLC) was greater than 58.2 µM. It also gave a TGI (SF-268 CNS) greater than 100 µM, a TGI (RXF 393 renal) greater than 100 µM and a TGI (BT-549 breast) greater than 100 µM. It also gave a TGI (PC-3 prostate) greater than 48 µM, a TGI (MCF7 breast) greater than 76.3 µM and a TGI (NCI-H522 lung) of 11.6 µM. For the same compound, the TGI (OVCAR-3 ovarian) was 11 µM, the TGI (HT29 colon) was 11.4 µM and the TGI (A498 renal) was greater than 100 µM. For the same compound, the TGI (OVCAR-8 ovarian) was greater than 57 µM.

`Cc1cc(C)nc(NS(=O)(=O)c2ccc(NC(=O)c3cc([N+](=O)[O-])cc([N+](=O)[O-])c3)cc2)n1` showed a TGI (A549 NSCLC) greater than 100 µM, a TGI (NCI-H226 lung) greater than 100 µM and a TGI (SNB-19 CNS) greater than 100 µM. It also gave a TGI (OVCAR-4 ovarian) greater than 100 µM, a TGI (CAKI-1 renal) greater than 100 µM and a TGI (SF-539 CNS) greater than 100 µM. For the same compound, the TGI (T-47D breast) was greater than 100 µM, the TGI (SK-MEL-28 melanoma) was greater than 100 µM and the TGI (UACC-257 melanoma) was greater than 100 µM. It also gave a TGI (NCI-H23 lung) greater than 100 µM, a TGI (MOLT-4 leukemia) of 13.5 µM and a TGI (HS 578T breast) greater than 100 µM. It also gave a TGI (SK-MEL-5 melanoma) greater than 100 µM, a TGI (786-0 renal) greater than 100 µM and a TGI (UACC-62 melanoma) greater than 100 µM. It also gave a TGI (SW-620 colon) greater than 100 µM, a TGI (HCT-15 colon) greater than 100 µM and a TGI (MALME-3M melanoma) greater than 100 µM. The TGI (UO-31 renal) was greater than 100 µM, the TGI (RPMI-8226 leukemia) was greater than 100 µM and the TGI (SK-OV-3 ovarian) was greater than 100 µM. For the same compound, the TGI (U251 CNS) was greater than 100 µM, the TGI (TK-10 renal) was greater than 100 µM and the TGI (COLO 205 colon) was 45.7 µM. For the same compound, the TGI (SN12C renal) was greater than 100 µM, the TGI (HCT-116 colon) was greater than 100 µM and the TGI (MDA-MB-231 breast) was greater than 100 µM. The TGI (NCI/ADR-RES ovarian) was greater than 100 µM, the TGI (LOX IMVI melanoma) was greater than 100 µM and the TGI (M14 melanoma) was greater than 100 µM. For the same compound, the TGI (KM12 colon) was greater than 100 µM, the TGI (K-562 leukemia) was greater than 100 µM and the TGI (CCRF-CEM leukemia) was greater than 100 µM. For the same compound, the TGI (DU-145 prostate) was greater than 100 µM, the TGI (NCI-H460 lung) was greater than 100 µM and the TGI (SR leukemia) was 14.7 µM. It also gave a TGI (MDA-MB-435) greater than 100 µM, a TGI (SNB-75 CNS) greater than 100 µM and a TGI (HOP-92 NSCLC) greater than 100 µM. For the same compound, the TGI (SK-MEL-2 melanoma) was greater than 100 µM, the TGI (MDA-N) was greater than 100 µM and the TGI (IGROV1 ovarian) was greater than 100 µM. It also gave a TGI (HOP-62 NSCLC) greater than 100 µM, a TGI (SF-268 CNS) greater than 100 µM and a TGI (RXF 393 renal) greater than 100 µM. For the same compound, the TGI (BT-549 breast) was greater than 100 µM, the TGI (PC-3 prostate) was greater than 100 µM and the TGI (MCF7 breast) was greater than 100 µM. The TGI (HL-60(TB) leukemia) was greater than 100 µM, the TGI (OVCAR-3 ovarian) was 98.4 µM and the TGI (HT29 colon) was greater than 100 µM. It also gave a TGI (A498 renal) greater than 100 µM and a TGI (OVCAR-8 ovarian) greater than 100 µM.

With `COc1cc(OC)c(C2(c3c(OC(C)C)c(=O)c3=O)SCCCS2)cc1OC` the TGI (A549 NSCLC) was greater than 100 µM, the TGI (NCI-H226 lung) was greater than 100 µM and the TGI (SNB-19 CNS) was greater than 100 µM. It also gave a TGI (OVCAR-4 ovarian) greater than 100 µM, a TGI (CAKI-1 renal) greater than 100 µM and a TGI (SF-539 CNS) greater than 100 µM. It also gave a TGI (T-47D breast) greater than 100 µM, a TGI (SK-MEL-28 melanoma) greater than 100 µM and a TGI (UACC-257 melanoma) greater than 100 µM. The TGI (NCI-H23 lung) was greater than 100 µM, the TGI (HS 578T breast) was greater than 100 µM and the TGI (SK-MEL-5 melanoma) was greater than 100 µM. The TGI (EKVX NSCLC) was greater than 100 µM, the TGI (786-0 renal) was greater than 100 µM and the TGI (UACC-62 melanoma) was greater than 100 µM. The TGI (SW-620 colon) was greater than 100 µM, the TGI (HCT-15 colon) was greater than 100 µM and the TGI (MALME-3M melanoma) was greater than 100 µM. It also gave a TGI (UO-31 renal) greater than 100 µM, a TGI (RPMI-8226 leukemia) greater than 100 µM and a TGI (SK-OV-3 ovarian) greater than 100 µM. It also gave a TGI (U251 CNS) greater than 100 µM, a TGI (TK-10 renal) greater than 100 µM and a TGI (COLO 205 colon) greater than 100 µM. For the same compound, the TGI (SN12C renal) was greater than 100 µM, the TGI (HCT-116 colon) was greater than 100 µM and the TGI (OVCAR-5 ovarian) was greater than 100 µM. It also gave a TGI (MDA-MB-231 breast) greater than 100 µM, a TGI (NCI/ADR-RES ovarian) greater than 100 µM and a TGI (LOX IMVI melanoma) greater than 100 µM. It also gave a TGI (M14 melanoma) greater than 100 µM, a TGI (KM12 colon) greater than 100 µM and a TGI (K-562 leukemia) greater than 100 µM. For the same compound, the TGI (SF-295 CNS) was greater than 100 µM, the TGI (CCRF-CEM leukemia) was greater than 100 µM and the TGI (DU-145 prostate) was greater than 100 µM. For the same compound, the TGI (ACHN renal) was greater than 100 µM, the TGI (NCI-H460 lung) was greater than 100 µM and the TGI (SR leukemia) was greater than 100 µM. It also gave a TGI (HCC-2998 colon) greater than 100 µM, a TGI (MDA-MB-435) greater than 100 µM and a TGI (SNB-75 CNS) greater than 100 µM. The TGI (HOP-92 NSCLC) was greater than 100 µM, the TGI (SK-MEL-2 melanoma) was greater than 100 µM and the TGI (MDA-N) was greater than 100 µM. For the same compound, the TGI (IGROV1 ovarian) was greater than 100 µM, the TGI (HOP-62 NSCLC) was greater than 100 µM and the TGI (SF-268 CNS) was greater than 100 µM. It also gave a TGI (RXF 393 renal) greater than 100 µM, a TGI (BT-549 breast) greater than 100 µM and a TGI (PC-3 prostate) greater than 100 µM. It also gave a TGI (MCF7 breast) greater than 100 µM, a TGI (HL-60(TB) leukemia) greater than 100 µM and a TGI (NCI-H522 lung) greater than 100 µM. For the same compound, the TGI (OVCAR-3 ovarian) was greater than 100 µM, the TGI (HT29 colon) was greater than 100 µM and the TGI (A498 renal) was greater than 100 µM. It also gave a TGI (OVCAR-8 ovarian) greater than 100 µM.
